Experiments:
Format in all cases: biochemical
[1] = target: T1, beef liver glutamate dehydrogenase (Bos taurus, UniProt P00366); assay: Commercial glutamate dehydrogenase with RAP; details: 20 μM RAP
T1 construct: purchased Boehringer Mannheim Corp. (Indianapolis); host or cells: beef liver
From the text: (§1) Enzymes and enzyme assays. Rabbit muscle glyceraldehyde-3-phosphate dehydrogenase (80 U/mg: ammonium sulfate suspension), rabbit muscle glycerol-3-phosphate dehydrogenase (40 U/mg; ammonium sulfate suspension),beef liver glutamate dehydrogenase (120 U/mg: in 50% glycerol), mitochondrial pig heart malate dehydrogenase (1100 U/mg; in 50% glycerol) and yeast hexokinase (140 U/mg; ammonium sulfate suspension) were purchased from Boehringer Mannheim Corp. (Indianapolis). Beef heart lactate dehydrogenase (280 U/mg) was purchased from Worthington Biochemical Corporation (Freehold, N.J.). Porcine heart L-alanine aminotransferase (130 U/mg), rabbit muscle phosphofructokinase (140 U/mg; ammonium sulfate suspension), bovine heart α-ketoglutarate (8 U/mg) and pyruvate (5 U/mg) dehydrogenase complexes, sodium pyruvate, L-methionine-SR-sulfoximine, DL-vinylglycine, NAD^+, NADH and NAD^+ analogues (3-acetylpyridine, thionicotinamide, and 3-pyridinealdehyde adenine dinucleotides) were purchased from Sigma Chemical Company (St. Louis, Mo.).
(§2) Each of the enzymes was assayed by procedures in which change of absorbance at 340 nm due to NADH was followed essentially as described by Bergmeyer (1974, Methods of Enzymatic Analysis, 2nd Eng. Ed., Verlag Chemie Weinheim Academic Press, N.Y.) with the following exceptions. […]

phosphofructokinase = assay: Rat brain phosphofructokinase with RAP; details: 20 μM RAP
Method: Each of the enzymes was assayed by procedures in which change of absorbance at 340 nm due to NADH was followed essentially as described by Bergmeyer (1974, Methods of Enzymatic Analysis, 2nd Eng. Ed., Verlag Chemie Weinheim Academic Press, N.Y.) with the following exceptions. Phosphofructokinase was assayed according to the method of Lai et al (1984, J. Neurochem., 42:438-446). NAD^+ -linked isocitrate dehydrogenase was assayed as described by Lai and Clark (1976, Biochem. J., 154:423-432). Pyruvate and α-ketoglutarate dehydrogenase complexes were respectively assayed according to the methods of Lai and Sheu (1985, J. Neurochem., 45:1861-1868) and Lai and Cooper (1986) (J. Neurochem, 47:1376-1386).

[2] = target: T2, mitochondrial pig heart malate dehydrogenase (Sus scrofa, UniProt P00346); assay: Commercial mitochondrial malate dehydrogenase with RAP; details: 20 μM RAP
T2 construct: purchased Boehringer Mannheim Corp. (Indianapolis); host or cells: pig heart
T2 sequence (P00346 25-338): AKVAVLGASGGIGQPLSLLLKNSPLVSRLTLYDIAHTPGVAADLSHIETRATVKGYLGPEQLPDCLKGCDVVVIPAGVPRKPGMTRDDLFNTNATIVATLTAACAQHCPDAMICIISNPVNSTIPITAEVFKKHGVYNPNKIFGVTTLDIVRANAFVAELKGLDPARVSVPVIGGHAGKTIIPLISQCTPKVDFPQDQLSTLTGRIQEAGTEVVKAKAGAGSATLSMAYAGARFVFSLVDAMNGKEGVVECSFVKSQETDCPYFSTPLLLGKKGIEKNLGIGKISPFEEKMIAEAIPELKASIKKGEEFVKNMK
From the text: as §1, §2

[3] = test system: lactate production from D-glucose in rat brain postnuclear supernatant fraction; assay: Lactate production from D-glucose in rat brain postnuclear supernatants
Method: FIG. 2 is a graphic presentation of inhibition of lactate production from D-glucose by rat brain postnuclear supernatant fraction and by synaptosoms incubated with RAP. Lactate production was determined for a 20-min incubation at 37° C. Values (expressed as % of the control rate) are mean±SD of 3-6 determinations. The control value was 8.1±0.9 nmol of lactate produced/min/mg protein, *P<0.05, **P<0.03 and ***P<0.005vs. control values.
Postnuclear supernatant fraction (containing the glycolytic enzymes) was prepared from rat brain according to the method of Lai et al (1984, supra). Rat brain synaptosomes were prepared according to the method of Lai et al (1980, Biochem. Pharmacol., 29:141-146). Lactate generated by these preparations in the presence of D-glucose was measured with lactate dehydrogenase as described by Lai et al (1984, supra), except that the concentrations of sodium phosphate buffer and nicotinamide used in the medium were respectively 5 and 20 mM. (In some cases where there was a carry over of appreciable RAP to the assay mix, ten times the recommended amount of lactate dehydrogenase was used and the effectiveness of the enzyme in converting lactate to pyruvate was checked by addition of lactate standards to the cuvette after the initial reaction was over).

T1 sequence (P00366 58-558): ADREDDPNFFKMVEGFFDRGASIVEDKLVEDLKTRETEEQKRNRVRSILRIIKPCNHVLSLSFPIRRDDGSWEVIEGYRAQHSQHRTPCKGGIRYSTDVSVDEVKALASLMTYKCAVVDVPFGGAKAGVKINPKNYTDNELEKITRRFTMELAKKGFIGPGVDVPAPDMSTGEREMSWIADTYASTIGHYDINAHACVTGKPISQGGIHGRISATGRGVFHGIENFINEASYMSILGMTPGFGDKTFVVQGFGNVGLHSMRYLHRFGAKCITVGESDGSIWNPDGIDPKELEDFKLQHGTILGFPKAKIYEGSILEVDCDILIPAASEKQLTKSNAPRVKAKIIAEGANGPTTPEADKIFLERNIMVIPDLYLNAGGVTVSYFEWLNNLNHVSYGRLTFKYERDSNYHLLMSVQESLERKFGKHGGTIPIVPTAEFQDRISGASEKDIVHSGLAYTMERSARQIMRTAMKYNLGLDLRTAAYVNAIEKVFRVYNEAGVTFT

Nc1ncnc2c1ncn2[C@@H]1O[C@H](COP(=O)(O)OP(=O)(O)OC[C@H]2O[C@@H](N3C=CC(CC(=O)C(=O)O)C(C=O)=C3)[C@H](O)[C@@H]2O)[C@@H](O)[C@H]1O (stereo partly drawn) [RAP, 3(-4-(reduced 3-pyridinealdehyde-adeninedinucleotide))-pyruvate]
inhibition at 20 µM [1]: ≤ 20%
effect on rat brain phosphofructokinase (phosphofructokinase): similarly unaffected
inhibition at 20 µM [2]: ≤ 20%
inhibition of lactate production from glucose in rat brain extracts [3]: strongly inhibited
concentrations at which lactate production is inhibited in a concentration-dependent manner ([3]; rat brain postnuclear supernatants, D-glucose): higher than 200 nM
IC50 ([3]; rat brain postnuclear supernatants, D-glucose, 20-min incubation at 37° C., true concentration lower since RAP dissociates, read-out: formal "concentration" required to inhibit lactate production by 50%): 1 to 9 µM

From patent US4950602A, “Inhibition of lactate production by pyruvate adducts” (Cornell Research Foundation, Inc., priority 1987, dated 1990)
